Where two headings read alike, the source gives them in different places. Starred links: 1 amine or outer side, 2 acyl side, 3 side chain; linkers in the order of their positions; H or OH if unused. Positions of bridges follow the written chain, without caps; N, C: chain ends. Non-standard residues stand in square brackets, D forms with d. Residues, ends and D or L forms follow the SMILES beside them. *: point of attachment. X77 = Cc1ccc(C(=O)O)cc1C(=O)Nc1ccc(-c2ccc(C[C@H](N[*:1])C(=O)[*:2])cc2)cc1; X5 = Cn1nc(C(=O)Nc2ccc(-c3ccc(C[C@H](N[*:1])C(=O)[*:2])cc3)cc2)c2ccccc21; Bip(4'-NH) = O=C([C@H](Cc1ccc(-c2ccc(N[*:3])cc2)cc1)N[*:1])[*:2]; dArg(ω-(3-HO-benzyl)) = N=C(NCCC[C@@H](N)C(=O)O)NCc1cccc(O)c1; Bip(4'-COOH) = N[C@@H](Cc1ccc(-c2ccc(C(=O)O)cc2)cc1)C(=O)O; Bip(4'-NHAc) = CC(=O)Nc1ccc(-c2ccc(C[C@H](N)C(=O)O)cc2)cc1; Indole3carbonyl(1-CH2COOH) = O=C(O)Cn1cc(C(=O)*)c2ccccc21; dArg(ω-Bn) = N=C(NCCC[C@@H](N)C(=O)O)NCc1ccccc1; Ala(morpholin-4-yl) = N[C@@H](CN1CCOCC1)C(=O)O; Phe(3-CONH2) = NC(=O)c1cccc(C[C@H](N)C(=O)O)c1; Bip = N[C@@H](Cc1ccc(-c2ccccc2)cc1)C(=O)O; Morpholine(3S-CO) = O=C(O)[C@@H]1COCCN1; 2Pal = N[C@@H](Cc1ccccn1)C(=O)O; 2Thi = N[C@@H](Cc1cccs1)C(=O)O; Cha = N[C@@H](CC1CCCCC1)C(=O)O; Chg = N[C@H](C(=O)O)C1CCCCC1; Sar = CNCC(=O)O
Biological target: TNFα (Homo sapiens, UniProt P01375)
Experiment: TNF-Induced HEK-Blue Assay
Assay type: cell-based
[1] = HEK-Blue-CD40L cells, NF-kB-driven secreted alkaline phosphatase reporter, TNFα 0.5 ng/ml, 18 h, read-out: TNF induced HEK-Blue assay IC50 value

Sequence of TNFα (P01375 77-233 limits assumed): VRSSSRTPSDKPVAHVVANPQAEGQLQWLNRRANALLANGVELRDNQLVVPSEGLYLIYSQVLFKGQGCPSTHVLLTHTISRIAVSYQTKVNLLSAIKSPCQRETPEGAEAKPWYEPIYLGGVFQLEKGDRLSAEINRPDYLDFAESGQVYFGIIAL

| Compound | IC50 [1] [nM] | IC50 [nM] |
| --- | --- | --- |
| CC(C)C[C@@H]1NC(=O)[C@H](Cc2ccccn2)NC(=O)[C@H](C(C)C)NC(=O)[C@@H]2CCCN2C(=O)[C@H](C(C)C)NC(=O)[C@@H](CCCNC(=N)N)NC(=O)[C@H](CC(=O)O)NC(=O)[C@H](Cc2ccc(O)cc2)NC(=O)CN(C)C(=O)[C@H](Cc2ccc(-c3ccc(NC(=O)c4nn(C)c5ccccc45)cc3)cc2)NC(=O)[C@H](Cc2ccc(-c3ccc(C(=O)O)cc3)cc2)NC(=O)[C@H](CC2CCCCC2)NC(=O)CSC[C@@H](C(=O)NCC(N)=O)NC1=O [Example 339] ({CH2CO}-[Cha][Bip(4'-COOH)][X5][Sar]YD[dR]VPV[2Pal]LCG-NH2; thioether N-13) | < 50 | – |
| CC(C)C[C@@H]1NC(=O)[C@H](Cc2cccc(C(N)=O)c2)NC(=O)[C@H](C(C)C)NC(=O)[C@@H]2CCCN2C(=O)[C@H](C(C)C)NC(=O)[C@@H](CCCNC(=N)NCc2ccccc2)NC(=O)[C@H](CC(=O)O)NC(=O)[C@@H]2CCCN2C(=O)CN(C)C(=O)[C@H](Cc2ccc(-c3ccc(NC(=O)c4cn(CC(=O)O)c5ccccc45)cc3)cc2)NC(=O)[C@H](Cc2ccc(-c3ccccc3)cc2)NC(=O)[C@H](CN2CCOCC2)NC(=O)CSC[C@@H](C(=O)NCC(N)=O)NC1=O [Example 535] ({CH2CO}-[Ala(morpholin-4-yl)][Bip][Bip(4'-NH)](Indole3carbonyl(1-CH2COOH))[Sar]PD[dArg(ω-Bn)]VPV[Phe(3-CONH2)]LCG-NH2; thioether N-13) | – | < 50 |
| CC(C)C[C@@H]1NC(=O)[C@H](CCCNC(=N)N)NC(=O)[C@H](C(C)C)NC(=O)[C@@H]2CCCN2C(=O)[C@H](C(C)C)NC(=O)[C@@H](CCCNC(=N)NCc2cccc(O)c2)NC(=O)[C@H](CC(=O)O)NC(=O)[C@@H]2CCCN2C(=O)CN(C)C(=O)[C@H](Cc2ccc(-c3ccc(NC(=O)c4cn(CC(=O)O)c5ccccc45)cc3)cc2)NC(=O)[C@H](Cc2ccc(-c3ccccc3)cc2)NC(=O)[C@H](CN2CCOCC2)NC(=O)CSC[C@@H](C(=O)NCC(N)=O)NC1=O [Example 565] ({CH2CO}-[Ala(morpholin-4-yl)][Bip][Bip(4'-NH)](Indole3carbonyl(1-CH2COOH))[Sar]PD[dArg(ω-(3-HO-benzyl))]VPVRLCG-NH2; thioether N-13) | – | < 50 |

Continued, in another order:

| IC50 [1] [nM] | Compound | IC50 [nM] |
| --- | --- | --- |
| 50 to 200 | CC(=O)Nc1ccc(-c2ccc(C[C@@H]3NC(=O)[C@H](Cc4ccc(-c5ccc(C(=O)O)cc5)cc4)NC(=O)[C@H](CN4CCOCC4)NC(=O)CSC[C@@H](C(=O)NCC(N)=O)NC(=O)[C@H](CC(C)C)NC(=O)[C@H](Cc4ccc(O)cc4)NC(=O)[C@H](C(C)C)NC(=O)[C@@H]4COCCN4C(=O)[C@H](C(C)C)NC(=O)[C@@H](CCCNC(=N)N)NC(=O)[C@H](CC(=O)O)NC(=O)[C@H](Cc4ccc(O)cc4)NC(=O)CN(C)C3=O)cc2)cc1 [Example 167] ({CH2CO}-[Ala(morpholin-4-yl)][Bip(4'-COOH)][Bip(4'-NHAc)][Sar]YD[dR]V[Morpholine(3S-CO)]VYLCG-NH2; thioether N-13) | – |
| 50 to 200 | CC(=O)Nc1ccc(-c2ccc(C[C@@H]3NC(=O)[C@H](Cc4ccc(-c5ccccc5)cc4)NC(=O)[C@H](CN4CCOCC4)NC(=O)CSC[C@@H](C(=O)NCC(N)=O)NC(=O)[C@H](CC(C)C)NC(=O)[C@H](Cc4cccs4)NC(=O)[C@H](C4CCCCC4)NC(=O)[C@@H]4CCCN4C(=O)[C@H](C(C)C)NC(=O)[C@@H](CCCNC(=N)N)NC(=O)[C@H](CC(=O)O)NC(=O)[C@H](Cc4ccccn4)NC(=O)CN(C)C3=O)cc2)cc1 [Example 452] ({CH2CO}-[Ala(morpholin-4-yl)][Bip][Bip(4'-NHAc)][Sar][2Pal]D[dR]VP[Chg][2Thi]LCG-NH2; thioether N-13) | – |
| 50 to 200 | CC(=O)Nc1ccc(-c2ccc(C[C@@H]3NC(=O)[C@H](Cc4ccc(-c5ccccc5)cc4)NC(=O)[C@H](CN4CCOCC4)NC(=O)CSC[C@@H](C(=O)NCC(N)=O)NC(=O)[C@H](CC(C)C)NC(=O)[C@H](Cc4cccc(C(N)=O)c4)NC(=O)[C@H](C(C)C)NC(=O)[C@@H]4CCCN4C(=O)[C@H](C(C)C)NC(=O)[C@@H](CCCNC(=N)N)NC(=O)[C@H](CC(=O)O)NC(=O)[C@H](Cc4ccc(O)cc4)NC(=O)CN(C)C3=O)cc2)cc1 [Example 456] ({CH2CO}-[Ala(morpholin-4-yl)][Bip][Bip(4'-NHAc)][Sar]YD[dR]VPV[Phe(3-CONH2)]LCG-NH2; thioether N-13) | – |
| < 50 | CC[C@H](C)[C@@H]1NC(=O)[C@@H](CCCNC(=N)N)NC(=O)[C@H](CC(=O)O)NC(=O)[C@H](Cc2cnc[nH]2)NC(=O)CN(C)C(=O)[C@H](Cc2ccc(-c3ccc(NC(=O)c4cc(C(=O)O)ccc4C)cc3)cc2)NC(=O)[C@H](Cc2ccc(-c3ccccc3)cc2)NC(=O)[C@H](CC2CCCCC2)NC(=O)CSC[C@@H](C(=O)NCC(N)=O)NC(=O)[C@H](CC(C)C)NC(=O)[C@H](Cc2cnc[nH]2)NC(=O)[C@H](C(C)C)NC(=O)[C@@H]2CCCN2C1=O [Example 450] ({CH2CO}-[Cha][Bip][X77][Sar]HD[dR]IPVHLCG-NH2; thioether N-13) | – |
